{
  "source": "patent US5428020A",
  "about": "“Cysteine (NPYS)-containing peptides and use thereof for inhibiting platelet aggregation” (Matsueda; Rei, priority 1994, dated 1995)",
  "key": {"[1]": {"test_system": "calpain", "assay": "Calpain inhibition, fluorogenic substrate succinyl-Leu-Tyr-amino-4-methylcumarin", "assay_type": "biochemical", "settings": "90 mM calpain; 1 mM substrate; 25° C.; pH 7.5; 5 mM CaCl2; read-out: Calpain Inhibitory Potency IC50", "experimental": "77, 1565 (1986). A calpain preparation (5~10 μl) was placed on a floating filter membrane (Marusyk et al., Anal. Biochem. 105, 403 (1980)) (Millipore type VMWP) over a buffer containing 50 mM Tris/HCl, pH 7.5 and 2.5 mM EDTA for 45-60 minutes, carefully removed and used for the following inhibition study. Aliquots (25 μl) of the enzyme (calpain) and buffer or synthetic peptide were added to a cuvette at 25° C. containing 1 mM succinyl-Leu-Tyr-amino-4-methylcumarin as the substrate in a buffer consisting of 60 mM Tris/HCl, pH 7.5, 2.5% DMSO and 5 mM CaCl2. The rate of substrate hydrolysis was continuously recorded on a Perkin-Elmer LS-5 fluorescence spectrophotometer connected to a R100 chart recorder. […] The IC50 was calculated from the dose-dependent curve for each inhibitor. The IC50 corresponds to that concentration of inhibitory peptide that produced 50% inhibition of calpain activity. In all cases, […] was utilized."}, "[2]": {"test_system": "human platelets", "assay": "Inhibition of agonist-induced aggregation of washed human platelets (aggregometer)", "assay_type": "cell-based", "parameters": "key to Inhibition of platelet aggregation, PMA / Inhibition of platelet aggregation, Thrombin / Inhibition of platelet aggregation, Plasmin / Inhibition of platelet aggregation, ADP / Inhibition of platelet aggregation, Collagen / Inhibition of platelet aggregation, U46619 / Inhibition of platelet aggregation, A23187: \"+\" indicates inhibition of platelet aggregation; \"-\" indicates the absence of inhibition of platelet aggregation; \"partial\" indicates a partial inhibition of platelet aggregation", "settings": "for Inhibition of platelet aggregation, A23187: agonist A23187 2.5 uM; for Inhibition of platelet aggregation, A23187 / Inhibition of platelet aggregation, ADP / Inhibition of platelet aggregation, PMA / Inhibition of platelet aggregation, U46619 / Inhibition of platelet aggregation, Collagen / Inhibition of platelet aggregation, Plasmin / Inhibition of platelet aggregation, Thrombin: inhibitor peptide 0.8 nm, 37° C.; for Inhibition of platelet aggregation, ADP: agonist ADP 20 uM; for Inhibition of platelet aggregation, PMA: agonist PMA 0.016 uM; for Inhibition of platelet aggregation, U46619: agonist U46619 1 uM; for Inhibition of platelet aggregation, Collagen: agonist collagen 4 ug/ml; for Inhibition of platelet aggregation, Plasmin: agonist plasmin 0.025 uM; for Inhibition of platelet aggregation, Thrombin: agonist thrombin 0.02 uM", "experimental": "Platelet-rich plasma was prepared by differential centrifugation (120×g, 30 min, 23° C.) of fresh whole human blood drawn into acid/citrate/dextrose (citric acid 0.079 M, sodium citrate, 0.085 M and dextrose 0.180 M) in a ratio of 1 ml of anticoagulant solution per 9 ml of blood. The platelets were washed and their suspensions prepared by a modification of the method of Mustard, et al., Brit. J. Haemat. 22, 193-204 (1972). The modifications included incubation of platelet-rich plasma with prostaglandin E1, hirudin and apyrase and two successive washes of the platelets with Tyrode-albumin buffer (without Ca^++) containing hirudin and apyrase, and apyrase alone. Platelet aggregation in the presence of each agonist and inhibitor peptide (0.8 nm) was performed at 37° C. under constant stirring (1100 rpm) conditions in a chronolog (Lumi) aggregometer. The total volume of the incubation mixture in the sample cuvette was 500 μl and the platelet concentration was adjusted to 5×10^8 /ml. The reference cuvette contained the suspension buffer. Platelet aggregation was initiated by the addition of the agonist to the sample cuvette. The data is indicated in the following table wherein \"+\" indicates inhibition of platelet aggregation, \"-\" indicates the absence of inhibition of platelet aggregation, and \"partial\" indicates a partial inhibition of platelet aggregation."}, "[3]": {"molecular_target": "T1, papain (Carica papaya, UniProt P00784)", "T1 sequence (P00784 134-345)": "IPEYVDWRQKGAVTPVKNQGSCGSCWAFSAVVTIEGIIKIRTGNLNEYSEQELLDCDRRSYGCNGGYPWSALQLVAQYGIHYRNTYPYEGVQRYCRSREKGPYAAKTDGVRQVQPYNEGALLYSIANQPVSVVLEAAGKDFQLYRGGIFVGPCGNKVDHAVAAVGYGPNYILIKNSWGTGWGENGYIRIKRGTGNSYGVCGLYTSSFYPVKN", "settings": "Teno et al., Int. J. Peptide Protein Res. 30, 93-98 (1987); cited from earlier work"}, "[4]": {"test_system": "platelets", "assay": "Platelet shape change induced by thrombin and plasmin", "assay_type": "cell-based, human"}, "[5]": {"test_system": "aggregen", "assay": "Thrombin- and plasmin-induced cleavage of labeled aggregen in intact radiolabeled platelets", "assay_type": "cell-based, human"}, "[6]": {"molecular_target": "T2, thrombin (Homo sapiens, UniProt P00734)", "assay": "Fibrinogenolytic activity of thrombin", "assay_type": "biochemical"}, "[7]": {"molecular_target": "T2, thrombin", "assay": "Amidolytic activity of thrombin", "assay_type": "biochemical"}, "[8]": {"test_system": "platelets", "assay": "Platelet cAMP levels", "assay_type": "cell-based, human"}, "[9]": {"molecular_target": "plasmin (Homo sapiens, UniProt P00747)", "sequence (P00747 581-810 limits assumed, species assumed)": "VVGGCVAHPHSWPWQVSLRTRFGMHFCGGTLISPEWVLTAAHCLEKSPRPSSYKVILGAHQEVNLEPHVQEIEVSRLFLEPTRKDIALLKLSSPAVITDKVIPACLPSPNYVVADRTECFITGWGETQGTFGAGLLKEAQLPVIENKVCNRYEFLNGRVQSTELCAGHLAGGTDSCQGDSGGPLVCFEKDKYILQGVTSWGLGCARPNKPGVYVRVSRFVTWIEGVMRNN", "sequence (P00747 97-580 partner limits assumed, species assumed)": "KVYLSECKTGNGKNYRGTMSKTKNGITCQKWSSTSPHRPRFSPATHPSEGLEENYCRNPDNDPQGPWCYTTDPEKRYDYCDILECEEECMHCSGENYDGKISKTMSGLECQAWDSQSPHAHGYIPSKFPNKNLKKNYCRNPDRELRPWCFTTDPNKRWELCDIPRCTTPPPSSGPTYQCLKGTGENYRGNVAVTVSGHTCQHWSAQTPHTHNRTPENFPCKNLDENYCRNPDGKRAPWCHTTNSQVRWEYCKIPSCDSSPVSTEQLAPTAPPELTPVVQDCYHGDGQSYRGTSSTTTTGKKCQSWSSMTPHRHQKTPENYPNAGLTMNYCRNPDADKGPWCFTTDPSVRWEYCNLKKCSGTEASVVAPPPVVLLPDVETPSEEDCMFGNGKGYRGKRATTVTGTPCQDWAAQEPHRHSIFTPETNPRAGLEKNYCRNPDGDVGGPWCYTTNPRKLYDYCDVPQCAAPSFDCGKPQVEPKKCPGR", "assay": "Amidolytic activity of plasmin", "assay_type": "biochemical"}},
  "note": "* marks the point of attachment. Npys = O=[N+]([O-])c1cccnc1S*",
  "data": [
    {"substance": "TFA.H-Gln-Val-Val-Cys(NpyS)-Gly-NH2 (H-QVVC(Npys)G-NH2; also: TFA salt) [Example 5]", "values": [
      {"measurement": "IC50", "setting": "[1]", "result": 36, "unit": "µM"},
      {"measurement": "Inhibition of platelet aggregation, A23187", "setting": "[2]", "result": "partial"},
      {"measurement": "Inhibition of platelet aggregation, ADP", "setting": "[2]", "result": "+"},
      {"measurement": "Inhibition of platelet aggregation, PMA", "setting": "[2]", "result": "+"},
      {"measurement": "Inhibition of platelet aggregation, U46619", "setting": "[2]", "result": "+"},
      {"measurement": "Inhibition of platelet aggregation, Collagen", "setting": "[2]", "result": "+"},
      {"measurement": "Inhibition of platelet aggregation, Plasmin", "setting": "[2]", "result": "+"},
      {"measurement": "Inhibition of platelet aggregation, Thrombin", "setting": "[2]", "result": "+"}
    ]},
    {"substance": "TFA.H-Phe-Gln-Leu-Val-Cys(NpyS)-Gly-NH2 (H-FQLVC(Npys)G-NH2; also: TFA salt) [Example 2]", "values": [
      {"measurement": "IC50", "setting": "[1]", "result": 5.6, "unit": "µM"},
      {"measurement": "Inhibition of platelet aggregation, A23187", "setting": "[2]", "result": "partial"},
      {"measurement": "Inhibition of platelet aggregation, ADP", "setting": "[2]", "result": "partial"},
      {"measurement": "Inhibition of platelet aggregation, PMA", "setting": "[2]", "result": "partial"},
      {"measurement": "Inhibition of platelet aggregation, U46619", "setting": "[2]", "result": "partial"},
      {"measurement": "Inhibition of platelet aggregation, Collagen", "setting": "[2]", "result": "partial"},
      {"measurement": "Inhibition of platelet aggregation, Plasmin", "setting": "[2]", "result": "+"},
      {"measurement": "Inhibition of platelet aggregation, Thrombin", "setting": "[2]", "result": "+"}
    ]},
    {"substance": "TFA.H-Ala-Gln-Val-Val-CYs (NpyS)-GlY-NH2 (H-AQVV-{Cys(NpyS)-Gly-NH2}; also: TFA salt) [Example 4]", "values": [
      {"measurement": "IC50", "setting": "[1]", "result": 16, "unit": "µM"},
      {"measurement": "Inhibition of platelet aggregation, A23187", "setting": "[2]", "result": "partial"},
      {"measurement": "Inhibition of platelet aggregation, ADP", "setting": "[2]", "result": "+"},
      {"measurement": "Inhibition of platelet aggregation, PMA", "setting": "[2]", "result": "+"},
      {"measurement": "Inhibition of platelet aggregation, U46619", "setting": "[2]", "result": "+"},
      {"measurement": "Inhibition of platelet aggregation, Collagen", "setting": "[2]", "result": "+"},
      {"measurement": "Inhibition of platelet aggregation, Plasmin", "setting": "[2]", "result": "+"},
      {"measurement": "Inhibition of platelet aggregation, Thrombin", "setting": "[2]", "result": "+"}
    ]},
    {"substance": "Gln-Val-Val-Ala-Gly (QVVAG; printed: Gln-Val-Val-Ala-Gly) [QVAAG, pentapeptide of kininogen D2 and D3 repeats]", "values": [
      {"measurement": "activity in inhibiting the thiol protease papain", "setting": "[3]", "result": "weak activity"}
    ]},
    {"substance": "TFA.H-Arg-Gln-Val-Val-Cys(NPYS)-GlY-NH2 (H-RQVVC(Npys)G-NH2; also: TFA salt) [Example 3]", "values": [
      {"measurement": "IC50", "setting": "[1]", "result": 55, "unit": "µM"},
      {"measurement": "Inhibition of platelet aggregation, A23187", "setting": "[2]", "result": "partial"},
      {"measurement": "Inhibition of platelet aggregation, ADP", "setting": "[2]", "result": "+"},
      {"measurement": "Inhibition of platelet aggregation, PMA", "setting": "[2]", "result": "+"},
      {"measurement": "Inhibition of platelet aggregation, U46619", "setting": "[2]", "result": "+"},
      {"measurement": "Inhibition of platelet aggregation, Collagen", "setting": "[2]", "result": "+"},
      {"measurement": "Inhibition of platelet aggregation, Plasmin", "setting": "[2]", "result": "+"},
      {"measurement": "Inhibition of platelet aggregation, Thrombin", "setting": "[2]", "result": "+"}
    ]},
    {"substance": "TFA.H-Phe-Gln-Val-Val-Cys(NpyS)-Gly-NH2 (H-FQVVC(Npys)G-NH2; also: TFA salt) [Example 1]", "values": [
      {"measurement": "effect on platelet shape change introduced by thrombin and plasmin", "setting": "[4]", "result": "no effect"},
      {"measurement": "thrombin- and plasmin induced cleavage of [^3 H]-5'-p-fluorosulfonylbenzoyl adenosine-labeled aggregen", "setting": "[5]", "result": "completely inhibited"},
      {"measurement": "IC50", "setting": "[1]", "result": 4.1, "unit": "µM"},
      {"measurement": "inhibition of fibrinogenolytic activity of thrombin", "setting": "[6]", "result": "did not inhibit"},
      {"measurement": "inhibition of amidolytic activity of thrombin", "setting": "[7]", "result": "did not inhibit"},
      {"measurement": "Inhibition of platelet aggregation, A23187", "setting": "[2]", "result": "-"},
      {"measurement": "Inhibition of platelet aggregation, ADP", "setting": "[2]", "result": "-"},
      {"measurement": "Inhibition of platelet aggregation, PMA", "setting": "[2]", "result": "-"},
      {"measurement": "Inhibition of platelet aggregation, U46619", "setting": "[2]", "result": "-"},
      {"measurement": "Inhibition of platelet aggregation, Collagen", "setting": "[2]", "result": "-"},
      {"measurement": "Inhibition of platelet aggregation, Plasmin", "setting": "[2]", "result": "+"},
      {"measurement": "Inhibition of platelet aggregation, Thrombin", "setting": "[2]", "result": "+"},
      {"measurement": "aggregation induced by any of the other agonists tested", "setting": "[2]; agonists other than thrombin and plasmin", "result": "did not inhibit"},
      {"measurement": "platelet-cAMP levels", "setting": "[8]", "result": "did not raise"},
      {"measurement": "inhibition of amidolytic activity of plasmin", "setting": "[9]", "result": "did not inhibit"}
    ]}
  ]
}
